Structures are written as SMILES.

Common to all, as to format: functional
In one assay the test system is LOX IMVI. The assay can be described thus: Growth inhibition of human LOXIMVI cells assessed as cell growth at 3 uM incubated for 48 hrs by sulforhodamine B assay relative to control. The note with it: read-out: Activity. On the technique in general: The SRB assay estimates cell density from bound dye.
Another assay deals with MDA-MB-468. The assay can be described thus: Growth inhibition of human MDA-MB-468 cells assessed as cell growth at 0.01 uM incubated for 48 hrs by sulforhodamine B assay relative to control. As to conditions: MDA-MB-468, 48 h, read-out: Activity.
The test system of another assay is HL-60(TB). In words: Growth inhibition of human HL-60(TB) cells assessed as cell growth at 0.05 uM incubated for 48 hrs by sulforhodamine B assay relative to control. The note with it: HL-60, 48 h, read-out: Activity.
A further assay relates to NCI-H322M. In words: Growth inhibition of human NCI-H322M cells assessed as cell growth at 0.005 uM incubated for 48 hrs by sulforhodamine B assay relative to control. The note with it: read-out: Activity.
Assay [1] relates to MDA-MB-435. The assay can be described thus: Growth inhibition of human MDA-MB-435 cells assessed as cell growth at 0.005 uM incubated for 48 hrs by sulforhodamine B assay relative to control. The note with it: MDA-MB-435, 48 h, read-out: Activity.
Assay [2] has as its system OVCAR-5. In words: Growth inhibition of human OVCAR5 cells assessed as cell growth at 0.005 uM incubated for 48 hrs by sulforhodamine B assay relative to control. As to conditions: OVCAR-5, 48 h, read-out: Activity.
In a further assay the test system is 786-0. The assay can be described thus: Growth inhibition of human 786-0 cells assessed as cell growth at 0.005 uM incubated for 48 hrs by sulforhodamine B assay relative to control. The note with it: 786-0, 48 h, read-out: Activity.
For another assay, the system named is RXF 393. The assay can be described thus: Growth inhibition of human RXF393 cells assessed as cell growth at 0.005 uM incubated for 48 hrs by sulforhodamine B assay relative to control. As to conditions: RXF 393, 48 h, read-out: Activity.
Another assay relates to UO-31. In words: Growth inhibition of human UO31 cells assessed as cell growth at 0.005 uM incubated for 48 hrs by sulforhodamine B assay relative to control. As to conditions: UO-31, 48 h, read-out: Activity.
The test system of another assay is PC-3. The assay can be described thus: Growth inhibition of human PC3 cells assessed as cell growth at 0.005 uM incubated for 48 hrs by sulforhodamine B assay relative to control. As to conditions: PC-3, 48 h, read-out: Activity.
The test system of a further assay is K562. In words: Growth inhibition of human K562 cells assessed as cell growth at 0.05 uM incubated for 48 hrs by sulforhodamine B assay relative to control. The note with it: K562, 48 h, read-out: Activity.
Another assay concerns MOLT-4. The assay can be described thus: Growth inhibition of human MOLT4 cells assessed as cell growth at 0.05 uM incubated for 48 hrs by sulforhodamine B assay relative to control. As to conditions: MOLT-4, 48 h, read-out: Activity.
The subject of assay [3] is A549. The assay can be described thus: Growth inhibition of human A549/ATCC cells assessed as cell growth at 0.05 uM incubated for 48 hrs by sulforhodamine B assay relative to control. The note with it: A549, 48 h, read-out: Activity.
For a further assay, the system named is HT-29. In words: Growth inhibition of human HT-29 cells assessed as cell growth at 0.05 uM incubated for 48 hrs by sulforhodamine B assay relative to control. The note with it: HT-29, 48 h, read-out: Activity.
Assay [4] relates to MDA-MB-435. In words: Growth inhibition of human MDA-MB-435 cells assessed as cell growth at 0.05 uM incubated for 48 hrs by sulforhodamine B assay relative to control. As to conditions: MDA-MB-435, 48 h, read-out: Activity.
The subject of assay [5] is OVCAR-5. The assay can be described thus: Growth inhibition of human OVCAR5 cells assessed as cell growth at 0.05 uM incubated for 48 hrs by sulforhodamine B assay relative to control. As to conditions: OVCAR-5, 48 h, read-out: Activity.
In assay [6] the test system is ACHN. In words: Growth inhibition of human ACHN cells assessed as cell growth at 0.05 uM incubated for 48 hrs by sulforhodamine B assay relative to control. The note with it: read-out: Activity.
The test system of assay [7] is CAKI-1. In words: Growth inhibition of human Caki1 cells assessed as cell growth at 0.05 uM incubated for 48 hrs by sulforhodamine B assay relative to control. The note with it: CAKI-1, 48 h, read-out: Activity.
For a further assay, the system named is COLO 205. In words: Growth inhibition of human COLO205 cells assessed as cell growth at 0.5 uM incubated for 48 hrs by sulforhodamine B assay relative to control. The note with it: COLO 205, 48 h, read-out: Activity.
For the next assay, the system named is HCT-15. In words: Growth inhibition of human HCT15 cells assessed as cell growth at 0.5 uM incubated for 48 hrs by sulforhodamine B assay relative to control. The note with it: HCT-15, 48 h, read-out: Activity.
Assay [8] deals with T47D. In words: Growth inhibition of human T47D cells assessed as cell growth at 0.5 uM incubated for 48 hrs by sulforhodamine B assay relative to control. As to conditions: read-out: Activity.
The subject of a further assay is EKVX. The assay can be described thus: Growth inhibition of human EKVX cells assessed as cell growth at 5 uM incubated for 48 hrs by sulforhodamine B assay relative to control. The note with it: read-out: Activity.
The test system of the next assay is NCI-H23. The assay can be described thus: Growth inhibition of human NCI-H23 cells assessed as cell growth at 5 uM incubated for 48 hrs by sulforhodamine B assay relative to control. As to conditions: NCI-H23, 48 h, read-out: Activity.
The subject of the next assay is HCC 2998. In words: Growth inhibition of human HCC2998 cells assessed as cell growth at 5 uM incubated for 48 hrs by sulforhodamine B assay relative to control. The note with it: HCC 2998, 48 h, read-out: Activity.
The subject of assay [9] is HCT-116. In words: Growth inhibition of human HCT116 cells assessed as cell growth at 5 uM incubated for 48 hrs by sulforhodamine B assay relative to control. As to conditions: HCT-116, 48 h, read-out: Activity.
Another assay deals with KM12. The assay can be described thus: Growth inhibition of human KM12 cells assessed as cell growth at 5 uM incubated for 48 hrs by sulforhodamine B assay relative to control. The note with it: KM12, 48 h, read-out: Activity.
For the next assay, the system named is Malme-3M. The assay can be described thus: Growth inhibition of human MALME-3M cells assessed as cell growth at 5 uM incubated for 48 hrs by sulforhodamine B assay relative to control. The note with it: read-out: Activity.
In assay [10] the test system is CAKI-1. The assay can be described thus: Growth inhibition of human Caki1 cells assessed as cell growth at 5 uM incubated for 48 hrs by sulforhodamine B assay relative to control. As to conditions: CAKI-1, 48 h, read-out: Activity.
The subject of assay [11] is A549. In words: Growth inhibition of human A549/ATCC cells assessed as cell growth at 50 uM incubated for 48 hrs by sulforhodamine B assay relative to control. The note with it: A549, 48 h, read-out: Activity.
For assay [12], the system named is HCT-116. The assay can be described thus: Growth inhibition of human HCT116 cells assessed as cell growth at 50 uM incubated for 48 hrs by sulforhodamine B assay relative to control. As to conditions: HCT-116, 48 h, read-out: Activity.
For a further assay, the system named is UACC-62. The assay can be described thus: Growth inhibition of human UACC62 cells assessed as cell growth at 50 uM incubated for 48 hrs by sulforhodamine B assay relative to control. As to conditions: UACC-62, 48 h, read-out: Activity.
The next assay deals with OVCAR-8. In words: Growth inhibition of human OVCAR8 cells assessed as cell growth at 50 uM incubated for 48 hrs by sulforhodamine B assay relative to control. As to conditions: OVCAR-8, 48 h, read-out: Activity.
The subject of another assay is A498. The assay can be described thus: Growth inhibition of human A498 cells assessed as cell growth at 50 uM incubated for 48 hrs by sulforhodamine B assay relative to control. The note with it: A498, 48 h, read-out: Activity.
Assay [13] concerns ACHN. The assay can be described thus: Growth inhibition of human ACHN cells assessed as cell growth at 50 uM incubated for 48 hrs by sulforhodamine B assay relative to control. As to conditions: read-out: Activity.
Assay [14] concerns T47D. The assay can be described thus: Growth inhibition of human T47D cells assessed as cell growth at 50 uM incubated for 48 hrs by sulforhodamine B assay relative to control. As to conditions: read-out: Activity.

For the compound `COc1cc2cc(Oc3ccc(NC(=O)Nc4ccc(Cl)c(C(F)(F)F)c4)cc3)c(C)nc2cc1OC`, the growth at 3 µM in the assay on LOX IMVI was found to be 12%.

For the compound `COc1cc2cc(Oc3ccc(NC(=O)Nc4cc(C(F)(F)F)cc(C(F)(F)F)c4)cc3)c(C)nc2cc1OC`, the growth at 0.01 µM with MDA-MB-468 was determined as 101%.

On to `COc1cc2cc(Oc3ccc(NC(=O)Nc4cccc(C(F)(F)F)c4)cc3)c(C)nc2cc1OC`, for which the growth at 0.05 µM was 101% in the assay with HL-60(TB); 99% with K562; 98% in the assay on MOLT-4; 96% with A549 [3]; 100% in the assay on HT-29; 96% in the assay with MDA-MB-435 [4]. For the same compound, the growth at 0.05 µM amounted to 103% in the assay with OVCAR-5 [5], 99% in the assay on ACHN [6] and 93% in the assay with CAKI-1 [7]. In addition, the growth at 0.005 µM with NCI-H322M came to 91%; in the assay with MDA-MB-435 [1] it was 95%; in the assay with OVCAR-5 [2] it was 103%; in the assay on 786-0, 98%; in the assay on RXF 393 it was 94%; in the assay with UO-31, 90%. The growth at 0.005 µM in the assay on PC-3 came out at 94%. Also, the values for the growth at 0.5 µM with COLO 205, in the assay on HCT-15 and in the assay with T47D [8] were 102%, 92% and 94%, respectively. Moreover, the growth at 5 µM in the assay on EKVX is 6%; in the assay on NCI-H23, 9%; in the assay on HCC 2998, 26%; in the assay with HCT-116 [9] it was 6%; in the assay with KM12, 5%; in the assay with Malme-3M, -1%. In addition, the growth at 5 µM with CAKI-1 [10] was -7%. For the same compound, the growth at 50 µM in the assay with A549 [11] was -72%; in the assay on HCT-116 [12], -86%; in the assay on UACC-62, -44%; in the assay on OVCAR-8, -90%; in the assay with A498 it was -65%; in the assay on ACHN [13], -34%. Moreover, in the assay with T47D [14], the growth at 50 µM was -49%.
